# Experimental data published in PubChem BioAssay (NCI).
#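 Step 1: Grow cells in 96-well plates. Step 2: Expose to compound for 48 hours at 5 concentrations. Step 3: Interpolate endpoints linearly; if unreached, use highest concentration. GI50 marks 50% less growth. Definition used: TGI = concentration required for complete inhibition of growth.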
# Columns and labels:
# Assay in all cases: NCI-60 cell line screen, 48 h
# [1] = test system: SW-620 colon
# [2] = test system: OVCAR-8 ovarian
# [3] = test system: KM12 colon
# [4] = test system: HCT-15 colon
# [5] = test system: MALME-3M melanoma
# [6] = test system: TK-10 renal
# [7] = test system: HOP-92 NSCLC
# [8] = test system: U251 CNS
# [9] = test system: EKVX NSCLC
# [10] = test system: HS 578T breast
# [11] = test system: NCI-H226 lung
# [12] = test system: UACC-62 melanoma
# [13] = test system: IGROV1 ovarian
# [14] = test system: SR leukemia
# [15] = test system: OVCAR-4 ovarian
# [16] = test system: M14 melanoma
# [17] = test system: MDA-N
# [18] = test system: PC-3 prostate
# [19] = test system: A549 NSCLC
# [20] = test system: T-47D breast
# [21] = test system: LOX IMVI melanoma
# [22] = test system: RPMI-8226 leukemia
# [23] = test system: NCI/ADR-RES ovarian
# [24] = test system: SNB-75 CNS
# [25] = test system: SF-295 CNS
# [26] = test system: RXF 393 renal
# [27] = test system: SF-539 CNS
# [28] = test system: SF-268 CNS
# [29] = test system: MDA-MB-435
# [30] = test system: A498 renal
# [31] = test system: HOP-62 NSCLC
# [32] = test system: ACHN renal
# [33] = test system: UACC-257 melanoma
# [34] = test system: HT29 colon
# [35] = test system: 786-0 renal
# [36] = test system: SNB-19 CNS
# [37] = test system: CCRF-CEM leukemia
# [38] = test system: NCI-H460 lung
# [39] = test system: CAKI-1 renal
# [40] = test system: HCT-116 colon
# [41] = test system: NCI-H522 lung
# [42] = test system: MDA-MB-231 breast
# [43] = test system: COLO 205 colon
# [44] = test system: SK-MEL-5 melanoma
# [45] = test system: HL-60(TB) leukemia
# [46] = test system: MOLT-4 leukemia
# [47] = test system: OVCAR-5 ovarian
# [48] = test system: OVCAR-3 ovarian
# [49] = test system: SK-MEL-28 melanoma
# [50] = test system: HCC-2998 colon
# [51] = test system: SK-MEL-2 melanoma
# [52] = test system: K-562 leukemia
# [53] = test system: DU-145 prostate
# [54] = test system: SN12C renal
# [55] = test system: NCI-H23 lung
# [56] = test system: UO-31 renal
# [57] = test system: BT-549 breast
# [58] = test system: MCF7 breast
# [59] = test system: SK-OV-3 ovarian
compound,measurement,setting,value
O=C1NCC2(CCN(CCCC3(c4ccc(F)cc4)OCCO3)CC2)N1c1ccccc1,TGI,[1],> 100 µM
same,TGI,[2],> 100 µM
same,TGI,[3],> 100 µM
same,TGI,[4],> 100 µM
same,TGI,[5],> 100 µM
same,TGI,[6],> 100 µM
same,TGI,[7],> 100 µM
same,TGI,[8],> 100 µM
same,TGI,[9],> 100 µM
same,TGI,[10],> 100 µM
same,TGI,[11],> 100 µM
same,TGI,[12],> 100 µM
same,TGI,[13],> 100 µM
same,TGI,[14],> 100 µM
same,TGI,[15],> 100 µM
same,TGI,[16],> 100 µM
same,TGI,[17],> 100 µM
same,TGI,[18],> 100 µM
same,TGI,[19],> 100 µM
same,TGI,[20],> 100 µM
same,TGI,[21],> 100 µM
same,TGI,[22],> 100 µM
same,TGI,[23],> 100 µM
same,TGI,[24],> 100 µM
same,TGI,[25],> 100 µM
same,TGI,[26],> 100 µM
same,TGI,[27],> 100 µM
same,TGI,[28],> 100 µM
same,TGI,[29],> 100 µM
same,TGI,[30],> 100 µM
same,TGI,[31],> 100 µM
same,TGI,[32],> 100 µM
same,TGI,[33],> 100 µM
same,TGI,[34],> 100 µM
same,TGI,[35],> 100 µM
same,TGI,[36],> 100 µM
same,TGI,[37],> 100 µM
same,TGI,[38],> 100 µM
same,TGI,[39],> 100 µM
same,TGI,[40],> 100 µM
same,TGI,[41],> 100 µM
same,TGI,[42],> 100 µM
same,TGI,[43],> 100 µM
same,TGI,[44],> 100 µM
same,TGI,[45],> 100 µM
same,TGI,[46],> 100 µM
same,TGI,[47],> 100 µM
same,TGI,[48],> 100 µM
same,TGI,[49],> 100 µM
same,TGI,[50],> 100 µM
same,TGI,[51],> 100 µM
same,TGI,[52],> 100 µM
same,TGI,[53],> 100 µM
same,TGI,[54],> 100 µM
same,TGI,[55],> 100 µM
Cc1cc(I)cc(CN(C)CCCN2CCCCC2)c1O,GI50,[1],14.6 µM
same,TGI,[1],27.7 µM
same,GI50,[2],26.9 µM
same,TGI,[2],> 100 µM
same,GI50,[3],16.5 µM
same,TGI,[3],39.6 µM
same,GI50,[4],10.3 µM
same,TGI,[4],30.7 µM
same,GI50,[5],21.7 µM
same,TGI,[5],42.3 µM
same,GI50,[6],19.8 µM
same,TGI,[6],37.7 µM
same,GI50,[7],11.6 µM
same,TGI,[7],38.6 µM
same,GI50,[8],15.7 µM
same,TGI,[8],33.4 µM
same,GI50,[56],11.8 µM
same,TGI,[56],31.1 µM
same,GI50,[9],16.3 µM
same,TGI,[9],37.3 µM
same,GI50,[10],9.75 µM
same,TGI,[10],75.6 µM
same,GI50,[11],28.1 µM
same,TGI,[11],> 100 µM
same,GI50,[57],10.7 µM
same,TGI,[57],22.9 µM
same,GI50,[12],14.2 µM
same,TGI,[12],41.6 µM
same,GI50,[13],15.4 µM
same,TGI,[13],32.5 µM
same,TGI,[14],3.57 µM
same,GI50,[15],32.7 µM
same,TGI,[15],> 100 µM
same,GI50,[16],14.4 µM
same,TGI,[16],27.5 µM
same,GI50,[18],15.4 µM
same,TGI,[18],32.9 µM
same,GI50,[19],16.8 µM
same,TGI,[19],35.7 µM
same,GI50,[20],15.8 µM
same,TGI,[20],43 µM
same,GI50,[21],13.5 µM
same,TGI,[21],28.5 µM
same,GI50,[22],11.8 µM
same,TGI,[22],29.9 µM
same,GI50,[58],16.7 µM
same,TGI,[58],35.9 µM
same,GI50,[23],21.9 µM
same,TGI,[23],59 µM
same,GI50,[24],16.6 µM
same,TGI,[24],34.8 µM
same,GI50,[25],2.39 µM
same,TGI,[25],12.9 µM
same,GI50,[26],11.7 µM
same,TGI,[26],26.6 µM
same,GI50,[27],13.7 µM
same,TGI,[27],26.9 µM
same,GI50,[28],13.1 µM
same,TGI,[28],27.5 µM
same,GI50,[59],15.7 µM
same,TGI,[59],31.6 µM
same,GI50,[29],15 µM
same,TGI,[29],33.4 µM
same,GI50,[30],19.8 µM
same,TGI,[30],38.3 µM
same,GI50,[31],13.7 µM
same,TGI,[31],27 µM
same,GI50,[32],17.3 µM
same,TGI,[32],37.3 µM
same,GI50,[33],16.4 µM
same,TGI,[33],31.9 µM
same,GI50,[34],4.46 µM
same,TGI,[34],16.1 µM
same,GI50,[35],13.7 µM
same,TGI,[35],26.5 µM
same,GI50,[36],17.4 µM
same,TGI,[36],40.2 µM
same,GI50,[37],18.6 µM
same,TGI,[37],43.4 µM
same,GI50,[38],12.5 µM
same,TGI,[38],26.2 µM
same,GI50,[39],17 µM
same,TGI,[39],35.3 µM
same,GI50,[40],9.24 µM
same,TGI,[40],21.3 µM
same,GI50,[41],16.7 µM
same,TGI,[41],31.4 µM
same,GI50,[42],18.4 µM
same,TGI,[42],48.6 µM
same,GI50,[43],13.7 µM
same,TGI,[43],27.3 µM
same,GI50,[44],8.5 µM
same,TGI,[44],20.7 µM
same,GI50,[45],12.7 µM
same,TGI,[45],29.7 µM
same,GI50,[46],3.2 µM
same,TGI,[46],13.4 µM
same,GI50,[47],21 µM
same,TGI,[47],59.4 µM
same,GI50,[48],15.9 µM
same,TGI,[48],33.1 µM
same,GI50,[49],15.9 µM
same,TGI,[49],31.7 µM
same,GI50,[50],14 µM
same,TGI,[50],27.2 µM
same,GI50,[51],18.4 µM
same,TGI,[51],37 µM
same,GI50,[52],11.1 µM
same,TGI,[52],23.1 µM
same,GI50,[53],16.7 µM
same,TGI,[53],33.8 µM
same,GI50,[54],49.9 µM
same,TGI,[54],> 100 µM
same,GI50,[55],19 µM
same,TGI,[55],56.5 µM
